Reference: patent US20170291905A1, “ARGININE […] INHIBITORS AND USES THEREOF” (Epizyme, Inc., priority 2014, published 2017)
Counter-ions that a name gives are not always drawn.

Target: full-length human PRMT6 (Flag- and His-tagged) (Homo sapiens, UniProt Q96LA8)
Experiment: PRMT6 biochemical assay (3H-SAM Flashplate, histone H4 36-50 K44me1 peptide)
Conditions: 1 nM PRMT6, 30 min preincubation, 75 nM peptide
Excerpt: S-adenosylmethionine (SAM), S-adenosylhomocysteine (SAH), bicine, Tween20, dimethylsulfoxide (DMSO), bovine skin gelatin (BSG), sodium butyrate and Tris(2-carboxyethyl)phosphine hydrochloride solution (TCEP) were purchased from Sigma-Aldrich at the highest level of purity possible. ^3H-SAM was purchase from American Radiolabeled Chemicals with a specific activity of 80 Ci/mmol. 384-well streptavidin Flashplates were purchased from PerkinElmer.
Peptide representative of human histone H4 residues 36-50 was synthesized with an N-terminal linker-affinity tag motif and a C-terminal amide cap by 21st Century Biochemicals. The peptide was purified by high-performance liquid chromatography (HPLC) to greater than 95% purity and confirmed by liquid chromatography mass spectrometry (LC-MS). The sequence was Biot-Ahx-[…]-amide and contained a monomethylated lysine at position 44 (SEQ ID NO.:5).
Full-length human PRMT6 (NM_018137.2) transcript clone was amplified from an HEK 293 cDNA library, incorporating a flanking 5′ sequence encoding a FLAG tag ([…]) (SEQ ID NO.:6) fused directly to Ser 2 of PRMT6 and a 3′ sequence encoding a hexa His sequence (HHHHHH) (SEQ ID NO.: 17) fused directly to Asp 375. The amplified gene was subcloned into pFastBacMam (Viva Biotech).
Recombinant baculovirus were generated according to Bac-to-Bac kit instructions (Life Technologies). […] Infections were carried out at 37° C. for 48 hours, harvested by centrifugation, and stored at −80° C. for purification.
Column was washed with 20 mM imidazole in the same buffer and Flag-PRMT6-His was eluted with 150 mM imidazole. Pooled fractions were dialysed against buffer Ni-A and further purified by anti-flag M2 affinity chromatography. Flag-PRMT6-His was eluted with 200 ug/ml FLAG peptide in the same buffer. Pooled fractions were dialysed in 20 mM Tris, 150 mM NaCl, 10% glycerol and 5 mM β-mercaptoethanol, pH 7.8. The purity of recovered protein was 95%.
General Procedure for PRMT6 Enzyme Assays on Peptide Substrates.
The assays were all performed in a buffer consisting of 20 mM Bicine (pH=7.6), 1 mM TCEP, 0.005% BSG, and 0.002% Tween 20, prepared on the day of use. Compounds in 100% DMSO (1 ul) were spotted into a polypropylene 384-well V-bottom plates (Greiner) using a Platemate Plus outfitted with a 384-channel head (Thermo Scientific). DMSO (1 ul) was added to Columns 11, 12, 23, 24, rows A-H for the maximum signal control and 1 ul of SAH, a known product and inhibitor of PRMT6, was added to columns 11, 12, 23, 24, rows I-P for the minimum signal control. A cocktail (40 ul) containing the PRMT6 enzyme was added by Multidrop Combi (Thermo-Fisher). The compounds were allowed to incubate with PRMT6 for 30 min at room temperature, then a cocktail (10 ul) containing SAM and peptide was added to initiate the reaction (final volume=51 ul). The final concentrations of the components were as follows: PRMT6 was 1 nM, ^3H-SAM was 200 nM, non-radiolabeled SAM was 250 nM, peptide was 75 nM, SAH in the minimum signal control wells was 1 mM, and the DMSO concentration was 2%. The assays were stopped by the addition of non-radiolabeled SAM (10 ul) to a final concentration of 400 uM, which dilutes the ^3H-SAM to a level where its incorporation into the peptide substrate is no longer detectable. 50 ul of the reaction in the 384-well polypropylene plate was then transferred to a 384-well Flashplate and the biotinylated peptides were allowed to bind to the streptavidin surface for at least 1 hour before being washed once with 0.1% Tween20 in a Biotek ELx405 plate washer. The plates were then read in a PerkinElmer TopCount plate reader to measure the quantity of ^3H-labeled peptide bound to the Flashplate surface, measured as disintegrations per minute (dpm) or alternatively, referred to as counts per minute (cpm).
Where dpm=disintegrations per minute, cmpd=signal in assay well, and min and max are the respective minimum and maximum signal controls. […]

full-length human PRMT6 (Flag- and His-tagged), sequence (Q96LA8 with tags, fused parts or gaps): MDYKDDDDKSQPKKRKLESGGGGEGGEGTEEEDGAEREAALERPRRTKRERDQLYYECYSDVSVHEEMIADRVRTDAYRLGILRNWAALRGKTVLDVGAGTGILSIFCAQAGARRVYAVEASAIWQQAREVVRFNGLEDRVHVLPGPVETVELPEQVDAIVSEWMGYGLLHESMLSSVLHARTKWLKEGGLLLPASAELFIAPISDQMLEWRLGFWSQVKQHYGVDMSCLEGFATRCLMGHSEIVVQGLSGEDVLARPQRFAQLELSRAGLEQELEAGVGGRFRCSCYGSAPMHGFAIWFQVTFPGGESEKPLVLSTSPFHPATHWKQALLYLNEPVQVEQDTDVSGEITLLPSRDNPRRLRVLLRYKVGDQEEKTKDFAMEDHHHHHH

Row | Compound | IC50
1 | CNCCN(C)Cc1ncsc1[C@H]1CC[C@@]2(CC1)CC(C)(C)CO2 [compound 83] | 0.0627 µM
2 | CNCCNCc1c[nH]nc1[C@H]1CC[C@@]2(CC1)CC(C)(C)CO2 [compound 28, N1-((3-((5s,8s)-3,3-dimethyl-1-oxaspiro[4.5]decan-8-yl)-1H-pyrazol-4-yl)methyl)-N2-methylethane-1,2-diamine] | 0.262 µM
3 | Cc1[nH]nc(C2CCC3(CC2)CC(C)(C)CO3)c1CN(C)CCN (stereo not drawn) [compound 59] | 0.131 µM
4 | CNCCN(C)Cc1c[nH]nc1[C@H]1CC[C@@]2(CC1)COC(C)(C)C2 [compound 126, N1-((3-((5r,8r)-3,3-dimethyl-2-oxaspiro[4.5]decan-8-yl)-1H-pyrazol-4-yl)methyl)-N1,N2-dimethylethane-1,2-diamine] | 0.0399 µM
5 | CNCCN(C)Cc1nccn1[C@H]1CC[C@]2(CC1)CC(C)(C)CO2 [compound 91] | > 10 µM
6 | CNCCN(C)Cc1c[nH]nc1[C@@H]1CC[C@@H](OCCCOC)C2(CCCC2)C1 (racemic) [compound 26, N1-((3-((7R,10R)-10-(3-methoxypropoxy)spiro[4.5]decan-7-yl)-1H-pyrazol-4-yl)methyl)-N1,N2-dimethylethane-1,2-diamine] | 0.107 µM
7 | CNCCN(C)Cc1c[nH]nc1C1C[C@H](C(=O)NCCOC)C(C)(C)[C@H](C(=O)NCCOC)C1 (stereo partly drawn) [compound 13] | > 10 µM
8 | CNCCN(C)Cc1nncn1[C@H]1CC[C@@]2(CC1)CC(C)(C)CO2 [compound 68] | > 10 µM
9 | CNCCN(C)Cc1n[nH]cc1[C@H]1CC[C@@]2(CC1)CC(C)(C)CO2 [compound 115] | 0.0416 µM
10 | CNCCN(C)Cc1nc(C)sc1[C@H]1CC[C@]2(CC1)CC(C)(C)CO2 [compound 99] | 0.317 µM
11 | CNCCN(C)Cc1c[nH]nc1[C@H]1CC[C@@H](COCC(F)(F)F)CC1 [compound 23, N1,N2-dimethyl-N1-((3-((1s,4s)-4-((2,2,2-trifluoroethoxy)methyl)cyclohexyl)-1H-pyrazol-4-yl)methyl)ethane-1,2-diamine] | 0.0785 µM
12 | CNCCN(C)Cc1nnc(C)n1[C@H]1CC[C@@]2(CC1)CC(C)(C)CO2 [compound 71] | > 10 µM
13 | CCN(C)C(=O)C1CC(c2n[nH]cc2CN(C)CCNC)CC(C(=O)NCCC(C)C)C1(C)C (stereo not drawn) [compound 14, N1-ethyl-N3-isopentyl-N1,2,2-trimethyl-5-(4-((methyl(2-(methylamino)ethyl)amino)methyl)-1H-pyrazol-3-yl)cyclohexane-1,3-dicarboxamide] | > 10 µM
14 | CCOC[C@@H]1CC(c2n[nH]cc2CN(C)CCNC)CCC1(C)C (stereo partly drawn) [compound 31, {2-[({3-[(3R)-3-(ethoxymethyl)-4,4-dimethylcyclohexyl]-1H-pyrazol-4-yl}methyl)(methyl)amino]ethyl}(methyl)amine] | 0.0456 µM
15 | CNCCN(C)Cc1n[nH]cc1[C@H]1CC[C@]2(CC1)CC(C)(C)CO2 [compound 116] | 0.134 µM
16 | CN(CCN)Cc1nn(C)cc1[C@H]1CC[C@]2(CC1)CC(C)(C)CO2 [compound 102] | 1.14 µM
17 | CCOCC1(COCC)CCC(c2n[nH]cc2CN(C)CCN(C)C)CC1 [compound 121] | 0.0793 µM
18 | CCOCC1(COCC)CC=C(c2n[nH]cc2CN(C)CCNC)CC1 [compound 60] | 0.0411 µM
19 | CNCCN(C)Cc1c(C)[nH]nc1[C@H]1CC[C@@]2(CC1)CC(C)(C)CO2 [compound 57] | 0.094 µM
20 | CNCCN(C)Cc1c(C)noc1[C@H]1CC[C@]2(CC1)CC(C)(C)CO2 [compound 114] | 2.08 µM
21 | CCC1(CC)C[C@]2(CC[C@@H](c3n[nH]cc3CN(C)CCNC)CC2)OC1=O [compound 34, (5r,8r)-3,3-diethyl-8-(4-((methyl(2-(methylamino)ethyl)amino)methyl)-1H-pyrazol-3-yl)-1-oxaspiro[4.5]decan-2-one] | 0.0106 µM
22 | CNCCN(C)Cc1c(Cl)ncn1[C@H]1CC[C@]2(CC1)CC(C)(C)CO2 [compound 97] | 3.51 µM
23 | CNCCN(C)Cc1c[nH]nc1C1CCC(OCCCOC)C2(CCCC2)C1 (mixture of isomers) [compound 19, N1-((3-(10-(3-methoxypropoxy)spiro[4.5]decan-7-yl)-1H-pyrazol-4-yl)methyl)-N1,N2-dimethylethane-1,2-diamine dihydrochloride] | 0.191 µM

Other lines, results leading:

Row | IC50 | Compound
24 | 0.0603 µM | CNCCN(C)Cc1c[nH]nc1C1CCC(C)(C)[C@H](COCCCOC)C1 (stereo partly drawn) [compound 30, {2-[({3-[(3R)-3-[(3-methoxypropoxy)methyl]-4,4-dimethylcyclohexyl]-1H-pyrazol-4-yl}methyl)(methyl)amino]ethyl}(methyl)amine]
25 | 0.0359 µM | CNCCN(C)Cc1c[nH]nc1[C@H]1CC[C@@]2(CCCOC2)CC1 [compound 5, N1-((3-((6r,9r)-2-oxaspiro[5.5]undecan-9-yl)-1H-pyrazol-4-yl)methyl)-N1,N2-dimethylethane-1,2-diamine]
26 | 0.0174 µM | CNCCN(C)Cc1c[nH]nc1C1CCC2(CC1)CC(C)(C)OC2=O (stereo not drawn) [compound 125]
27 | 0.0183 µM | CNCCN(C)Cc1scnc1[C@H]1CC[C@@]2(CC1)CC(C)(C)CO2 [compound 62]
28 | 1.61 µM | CNCCN(C)Cc1cn(C)nc1C1CCC(C)(C)[C@@H](C(=O)NCC(C)C)C1 (stereo partly drawn) [compound 25]
29 | 0.0186 µM | CNCCN(C)Cc1c[nH]nc1[C@H]1CC[C@@]2(CCN(CCC(C)C)C2=O)CC1 [compound 11, (5r,8r)-2-isopentyl-8-(4-((methyl(2-(methylamino)ethyl)amino)methyl)-1H-pyrazol-3-yl)-2-azaspiro[4.5]decan-1-one]
30 | 0.0208 µM | CCC1(CC)C[C@]2(CC[C@H](c3n[nH]cc3CN(C)CCNC)CC2)OC1=O [compound 33, (5s,8s)-3,3-diethyl-8-(4-((methyl(2-(methylamino)ethyl)amino)methyl)-1H-pyrazol-3-yl)-1-oxaspiro[4.5]decan-2-one]
31 | 0.123 µM | CNCCN(C)Cc1nn(C)cc1[C@H]1CC[C@@]2(CC1)CC(C)(C)CO2 [compound 81]
32 | > 10 µM | CNCCN(C)Cc1cnnn1[C@H]1CC[C@@]2(CC1)CC(C)(C)CO2 [compound 65]
33 | 0.202 µM | Cc1[nH]nc([C@H]2CC[C@]3(CC2)CC(C)(C)CO3)c1CN(C)CCN [compound 52, N1-((3-((5r,8r)-3,3-dimethyl-1-oxaspiro[4.5]decan-8-yl)-5-methyl-1H-pyrazol-4-yl)methyl)-N1-methylethane-1,2-diamine]
34 | 0.0232 µM | CNCCN(C)Cc1c[nH]nc1[C@H]1CC[C@]2(CCCCO2)CC1 [compound 127, methyl([2-[methyl([3-[(6s,9r)-1-oxaspiro[5.5]undecan-9-yl]-1H-pyrazol-4-yl]methyl)amino]ethyl])amine bistrifluoroacetic acid salt]
35 | 0.345 µM | CN(CCN)Cc1nn(C)cc1[C@H]1CC[C@@]2(CC1)CC(C)(C)CO2 [compound 80]
36 | > 10 µM | CNCCN(C)Cc1nnc(C)n1[C@H]1CC[C@]2(CC1)CC(C)(C)CO2 [compound 93]
37 | 0.0167 µM | CNCCN(C)Cc1c[nH]nc1C1=CCC(CF)(CF)CC1 [compound 15, N-((3-(4,4-bis(fluoromethyl)cyclohex-1-en-1-yl)-1H-pyrazol-4-yl)methyl)-N1,N2-dimethylethane-1,2-diamine]
38 | 0.017 µM | CNCCN(C)Cc1c[nH]nc1C1=CCC(COCC(F)(F)F)CC1 (stereo not drawn) [compound 16, N1,N2-dimethyl-N1-((3-(4-((2,2,2-trifluoroethoxy)methyl)cyclohex-1-en-1-yl)-1H-pyrazol-4-yl)methyl)ethane-1,2-diamine]
39 | 0.18 µM | CNCCN(C)Cc1nc(C)sc1[C@H]1CC[C@@]2(CC1)CC(C)(C)CO2 [compound 77]
